Source: US11952388B2, “Crystal form of tri-cycle compound and application thereof” (FUJIAN AKEYLINK BIOTECHNOLOGY CO., LTD., priority 2018, dated 2024)

Legend:
[1] = test system: proteins in CD-1 mouse plasma; assay: Plasma protein binding rate (equilibrium dialysis); assay type: in vitro ADME, CD-1 mouse (mus musculus)
Experimental: Objectives of Experiment: to determine the binding rate of test compound to proteins in human and CD-1 mouse plasma
Experimental operation: 796 μL of blank plasma was taken from human and CD-1 mouse, and 4 μL of test compound working solution (400 μM) or warfarin working solution (400 μM) was added to make the final concentrations of both test compound and warfarin in the plasma sample 2 μM. The sample was mixed thoroughly. The final concentration of DMSO in the organic phase was 0.5%; 50 μt of plasma samples of test compound and warfarin was pipetted into the sample receiving plate (in triplicate), and immediately the corresponding volume of blank plasma or buffer was added to make the final volume of each sample 100 μL and the volume ratio of plasma:dialysis buffer 1:1. Then 400 μL of stop solution is added to these samples. These samples would be used as TO samples for determination of recovery and stability. […] All samples were analyzed by LC/MS/MS after protein precipitation, and the protein binding rate and recovery rate was calculated with the formula: % Unbound (unbound rate)=100*FC/TC, % Bound (bound rate)=100-% Unbound, % Recovery (recovery rate)=100*(FC+TC)/T0.

[2] = Pharmacokinetics of oral administration and intravenous injection in Balb/c mice; assay type: in vivo; conditions: female, mouse, plasma
Experimental: 1. Study on the Pharmacokinetics of Oral Administration and Intravenous Injection of the Compound Represented by Formula (I) in Balb/c Mice The compound represented by formula (I) was mixed with 5% DMSO/55% polyethylene glycol 400/40% aqueous solution, vortexed and sonicated to obtain an approximately clear solution of 1 mg/mL, which was then filtered by a microporous membrane for later use. Female Balb/c mice aged 7 to 10 weeks were selected and the candidate compound solution was administered intravenously at a dose of 1 mg/kg. The compound represented by formula (I) was mixed with 10% solutol (polyethylene glycol-15 hydroxystearate) aqueous solution, vortexed and sonicated to obtain an approximately clear solution of 1 mg/mL, which was then filtered through a microporous membrane for later use. Female Balb/c mice aged 7 to 10 weeks were selected and the candidate compound solution was orally administered at a dose of 10 mg/kg. Whole blood was collected at a certain period of time to prepare plasma, drug concentration was analyzed by LC-MS/MS method, and pharmacokinetic parameters was calculated by Phoenix WinNonlin software (Pharsight, USA). Note: T1/2 means half-life; Vdss means apparent volume of distribution; Cl means clearance rate; AUC0_last means area below the drug-time curve; Tmax means peak time; Cmax means peak concentration; F % means oral bioavailability; iv means intravenous injection; PO means oral administration; mpk means mg/kg.

[3] = Pharmacokinetics of oral administration and intravenous injection in Beagle; assay type: in vivo, beagle dogs
Experimental: 3. Study on the Pharmacokinetics of Oral Administration and Intravenous Injection of the Compound Represented by Formula (I) in Beagle The compound represented by formula (I) was mixed with 5% DMSO/55% polyethylene glycol 400/40% aqueous solution, vortexed and sonicated to obtain an approximately clear solution of 1 mg/mL, which was then filtered by a microporous membrane for later use. Male beagle dogs weighed about 10 kg were selected and the candidate compound solution was administered intravenously at a dose of 1 mg/kg. The compound represented by formula (I) was mixed with 10% solutol aqueous solution, vortexed and sonicated to obtain an approximately clear solution of 2 mg/mL, which was then filtered through a microporous membrane for later use. Male beagle dogs weighed about 10 kg were selected and the candidate compound solution was orally administered at a dose of 10 mg/kg. Whole blood was collected at a certain period of time to prepare plasma, drug concentration was analyzed by LC-MS/MS method, and pharmacokinetic parameters was calculated by Phoenix WinNonlin software (Pharsight, USA). Note: T1/2 means half-life; Vdss means apparent volume of distribution; Cl means clearance rate; AUC0_last means area below the drug-time curve; Tmax means peak time; Cmax means peak concentration; F % means oral bioavailability; iv means intravenous injection; PO means oral administration; mpk means mg/kg.

[4] = male, beagle, dog, plasma, 1 mg/kg, Dogs, iv 1 mpk
[5] = male, beagle, dog, plasma, 10 mg/kg, Dogs, po 10 mpk

## Cc1cc2n(c1)S(=O)(=O)c1ccc(C(=O)NCC[C@H]3COCCO3)cc1NC2=O [compound represented by formula (I)]
[1]
  binding rate to plasma proteins (conclusion in words): lower binding rate
[1]; 2 μM
  Binding rate of plasma protein: 94%
[2]; 1 mg/kg, iv 1 mpk
  clearance: 0.51 L/h/kg
  half-life: 1.2 h
[2]; 1 mg/kg, iv 1 mpk, read-out: AUC0-last
  AUC(0-t): 4.67 µM·h
[2]; 1 mg/kg, iv 1 mpk, read-out: Vdss
  Vd: 0.45 L/kg
[2]; 10 mg/kg, po 10 mpk
  Cmax: 19.9 µM
  Tmax: 0.5 h
  bioavailability: 70%
[2]; 10 mg/kg, po 10 mpk, read-out: AUC0-24h
  AUC(0-t): 32.5 µM·h
[3]; Beagle
  pharmacokinetics (conclusion in words): good single or partial index of pharmacokinetics
[3]; [4]
  clearance: 0.936 L/h/kg
  half-life: 2.87 h
[3]; male, beagle, dog, plasma, 1 mg/kg, Dogs, iv 1 mpk, read-out: AUC0-last
  AUC(0-t): 2.68 µM·h
[3]; male, beagle, dog, plasma, 1 mg/kg, Dogs, iv 1 mpk, read-out: Vdss
  Vd: 2.95 L/kg
[3]; [5]
  Cmax: 5.85 µM
  Tmax: 1.67 h
  bioavailability: 126%
[3]; male, beagle, dog, plasma, 10 mg/kg, Dogs, po 10 mpk, read-out: AUC0-24h
  AUC(0-t): 33.2 µM·h
